The values that follow come from patent publication US9132179B2, “Compositions for reducing bacterial carriage and CNS invasion and methods of using same” (The UAB Research Foundation, priority 2003, dated 2015).

In one experiment the test system is TIGR4 strain. The experiment in a line: Attachment of TIGR4 strain to ganglioside-coated ELISA plates, short-term incubation. It is filed as binding, S. pneumoniae. As for the experimental part: The ability of the TIGR4, and its nanA and nanB mutants to bind to specific gangliosides is measured. The gangliosides used include mixed gangliosides, asialo-GM1, GM1, GD1a, GD1b, GT1 (Calbiochem) and the GM3 ganglioside (Sigma). The GM3 ganglioside lacks the terminal or internal GalNAcβ1-4Gal sequence involved in pneumococcal binding and is used as a negative control. These mixed, mono-, di- or tri-sialic acid containing gangliosides bind readily to ELISA plates. […] Using ganglioside-coated plates, the ability to attach to these plates by wildtype TIGR4 strain, the stable opaque and transparent phase variants of the TIGR4 strain, the nanA, nanB, and nanA/nanB mutant strains is compared. These analyses include short-term incubation (1 hr) and extended incubations (24 hrs) on ganglioside-coated plates. Attached pneumococci are removed from the ganglioside plates by short incubation (10-15 min.) in Todd Hewitt medium containing 0.5% yeast extract followed by repeated pipetting and plating the released bacteria on blood agar plates. Alternatively 41° C. Todd Hewitt broth agar containing 0.5% yeast extract is poured on top of the attached pneumococci and the colonies are counted through the bottom of the plate. Controls include plates with no pneumococci and plates with no gangliosides but with pneumococci.

For experiment [1] the following is noted: GM1-binding peptide; cited from earlier work.
Experiment [2] has as its system S. pneumoniae strain EF3030. The experiment in a line: GLS preincubation of S. pneumoniae strain EF3030 before nasal application; CFU in tissues. Type of experiment: in vivo. The conditions noted are these: EF3030 preincubated with GLS, xid mice, four days after nasal application. As for the experimental part: Aliquots (3×10^7 CFUs) of S. pneumoniae were incubated for 30 minutes with 20 μg asialo-GM1 (a-GM1) or 125 μg of mixed GLSs (MG) prior to nasal application. The ON/E, OBs, brain and NW, NALT and lungs were collected four days later and analyzed for numbers of S. pneumoniae. The 0 value on the Y-axis represents the absence of detectable CFUs. Indicated are the mean+one SE of 5 mice and the P-values were obtained following statistical analysis. The data are representative of two separate experiments.
The blood was collected into a heparinized capillary tube from the retroorbital plexus. Mice were disinfected with 70% ethanol prior to collection of nasal wash (NW), kidney, spleen, and lungs. […]
Eight serial, three-fold dilutions were made of tissues and body fluids in sterile Ringer's solution and plated on blood agar plates containing 4 μg/ml of gentamicin sulfate. […] The results were expressed as CFUs/organ, per NW or per ml of blood.
To block GLS binding sites, 3×10^7 CFU of S. pneumoniae strain EF3030 were incubated for 30 min on ice with either 20 μg asialo-GM1 from human brain or 125 μg of mixed GLSs (18% GM1, 55% GD1a, 15% GD1b, 10% GT1b, 2% other GLSs) from bovine brain (Calbiochem-Novabiochem Corporation, Inc., La Jolla, Calif.). […] Tissues were analyzed for CFUs four days later.

Consider GM1, for which, in the experiment on TIGR4 strain, the “binding of pneumococci to coated plates” value is “not”.
As to GM3 [GM-3], in the experiment on TIGR4 strain, the “binding of pneumococci to coated plates” value is “not”.
On to VWRLLAPPFSNRLLP, for which the half-maximal inhibitory concentration (IC50) – broadly, the concentration needed to halve the response being measured – in experiment [1] was 1 µM.
Consider asialo-GM1, for which the “reduction of colonization in CNS” value in experiment [2] (CNS tissue) amounted to 25 fold. In addition, the “reduction of colonization in lungs” value in experiment [2] (lungs) came to 63 fold. In the experiment on TIGR4 strain, the “binding of pneumococci to coated plates” value was “bind and attachment”.
